Source: paper PMC9820444, “Design and Synthesis of Acridine-Triazole and Acridine-Thiadiazole Derivatives and Their Inhibitory Effect against Cancer Cells” (International Journal of Molecular Sciences, 2022)
Read-outs that look alike come from different tables or passages of the source. Marks after values point to notes of the source that are not given here.

Experiments:
zebrafish embryos = zebrafish embryos 72 hpf
MGC80-3 cells = test: Apoptosis by Annexin V-FITC/PI flow cytometry, MGC80-3; format: cell-based, human; conditions: control 0.586%
Experimental: The apoptosis ratios of MGC80-3 or T24 cell lines induced by the selected compounds at the concentration of IC50 and 0.5 IC50 were quantitatively determined by flow cytometry. Four quadrant images (Q1, Q2, Q3 and Q4) were observed by flow cytometric analysis. […] […] After treatment with compound 6h, 5.62% (3.43 μM) and 14.25% (6.85 μM) of the cells were apoptotic. These were higher percentages than the one observed in the control (0.586%). […] The results evidently illustrate that representative compounds 5d and 6h or 4h and 6h could suppress cell proliferation by inducing apoptosis in the early apoptotic period.
(§1) The apoptosis assay and the cell cycle analysis were carried out by cytometry (FACSVerse, BD, Piscataway, NJ, USA) at an excitation wavelength of 488 nm according to the method described in the literature with slight modifications. The cells were seeded at 2 × 10^6/well and washed by cold PBS. The buffer solutions were prepared using 0.1 M pH 7.4 Hepes/NaOH, 1.4 M NaCl, and 25 mM CaCl2.

[1] = test system: subintestinal veins (SIVs) in zebrafish embryos; test: Zebrafish angiogenesis assay (subintestinal veins, NBT/BCIP staining); format: in vivo; conditions: zebrafish embryos, 1 mg/mL, compared with blank control group
Excerpt: Currently, the zebrafish has emerged as a valuable model organism to substitute traditional models for studying angiogenesis inhibitors. The genes of zebrafish show 70–80% similarity to humans, and the vascular structure of zebrafish has high similarity to that of other vertebrates. Therefore, the subintestinal veins (SIVs) in the zebrafish embryos are used as evaluation indicators for anti-angiogenesis inhibitors. In this study, NBT/BCIP vascular staining was used to observe the angiogenesis effect of representative drugs (4h, 4f, 5d, 5h, 6g and 6h) in a zebrafish model. […] Compared with the blank control group, the area of the meshed pattern vessel and the number of vascular branches in the network decreased after the administration of compounds 4h, 5d, 5h and 6h.
The 24 hpf zebrafish embryos were dechorionated with a 1 gL^−1 pronase treatment and maintained in distilled water in 12-well cell culture plates (each well contained 20 embryos). A negative control group containing zebrafish embryos in distilled water and a vehicle treatment group that was treated with 2% dimethyl sulfoxide (DMSO) were prepared. The anti-angiogenic compounds were diluted to 1 mg/mL. After incubating at 28 °C for […], the embryos were immersed in 4% paraformaldehyde and dehydrated by gradient ethanol. Subsequently, the embryos were balanced in NTMT buffer (5 M NaCl + 1 M Tris [pH 9.0–9.5] + 1 M MgCl2+ 10% Tween), and nitrotetrazolium blue chloride (NBT) and p-toluidine salt (BCIP) staining were performed. To evaluate the effect of compounds on the angiogenesis of zebrafish embryos, the growth of embryonic sub-intestinal veins (SIVs) at 72 hpf was observed using an IX71 Olympus microscope (Hamburger, Germany). The length of the SIVs was calculated using the image J 1.8.0 software (Bethesda, MD, USA).

[2] = test system: large cell lung cancer cells (NCI-H460); test: MTT antiproliferative assay, NCI-H460; format: cell-based, human; conditions: Homo sapiens, read-out: Effect against cell viability (IC50), NCI-H460
[3] = test system: human foreskin fibroblasts (HFF); test: MTT antiproliferative assay, HFF; format: cell-based; conditions: Homo sapiens, Fibroblast, read-out: Effect against cell viability (IC50), HFF
T24 cells = test: Apoptosis by Annexin V-FITC/PI flow cytometry, T24; format: cell-based, human; conditions: T24, at IC50 concentration (4h 8.05 μM; 6h 8.93 μM); control 1.18%
Experimental: The apoptosis ratios of MGC80-3 or T24 cell lines induced by the selected compounds at the concentration of IC50 and 0.5 IC50 were quantitatively determined by flow cytometry. Four quadrant images (Q1, Q2, Q3 and Q4) were observed by flow cytometric analysis. The results of apoptosis ratios (including the early and late apoptosis ratios) after 12 h are presented in Figure 6 (MGC80-3) and Figure 7 (T24). […] After treatment with compound 6h, 5.62% (3.43 μM) and 14.25% (6.85 μM) of the cells were apoptotic. These were higher percentages than the one observed in the control (0.586%). […] The results evidently illustrate that representative compounds 5d and 6h or 4h and 6h could suppress cell proliferation by inducing apoptosis in the early apoptotic period.
as §1

[4] = test system: human gastric cancer cells-803 (MGC-803); test: MTT antiproliferative assay, MGC-803; format: cell-based; conditions: Homo sapiens, MGC-803, MTT, read-out: Effect against cell viability (IC50), MGC-803

COc1ccc(-c2nnc(N=C3c4ccccc4NC4C=CC(C)=CC34)s2)cc1 (stereo not shown) [6h, 7-methyl-N-(5-(4-methoxyphenyl)-1,3,4-thiadiazol-2-yl)-10,10a-dihydroacridin-9(8aH)-imine]
MAR (malformation rate) (zebrafish embryos; 1 mg/mL): 35% ^b | MOR (mortality rate) (zebrafish embryos; 1 mg/mL): 0% | MAR (malformation rate) (zebrafish embryos; 1.5 mg/mL): 80% ^b | MOR (mortality rate) (zebrafish embryos; 1.5 mg/mL): 0% | MAR (malformation rate) (zebrafish embryos; 2 mg/mL): 65% ^b | MOR (mortality rate) (zebrafish embryos; 2 mg/mL): 15% ^b | apoptosis percentage (early and late) (MGC80-3 cells; MGC80-3, 0.5 IC50 (5d 2.76 μM; 6h 3.43 μM)): 5.62% | apoptosis percentage (early and late) (MGC80-3 cells; MGC80-3, IC50 (5d 5.52 μM; 6h 6.85 μM)): 14.25% | area of the meshed pattern vessel and number of vascular branches in the network [1]: decreased | IC50 [2]: 13.3 ± 1.39 µM | IC50 [3]: 33.9 ± 1.28 µM | apoptosis ratio (T24 cells): 10.749% | IC50 [4]: 6.85 ± 0.84 µM
